Test system: PDE4
Assay: Evaluation of PDE4 inhibition (scintillation proximity assay)
Assay type: biochemical
Conditions: inhibition rate relative to control, test compound at 1 μM
In short: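 PDE4 was incubated 120 min at room temperature with [3H]-cAMP and compound in 50 mM Tris-HCl pH 7.5, 8.3 mM MgCl2, 1.7 mM EDTA, 0.3 mg/mL BSA. Product captured on ZnSO4-containing YSi-SPA beads and counted; inhibition calculated against DMSO control after no-enzyme blank subtraction.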

SMILES	PDE4 inhibitory activity (1 μM (%))
Cc1c(Cl)cc2nc(N3CCNC[C@@H]3C)oc2c1-n1cccn1 [Example 139, (S)-5-Chloro-6-methyl-2-(2-methylpiperazin-1-yl)-7-(1H-pyrazol-1-yl)benzoxazole]	39%
COc1c(Cl)cc2nc(N3CCNC[C@@H]3C)oc2c1-c1ccccn1 [Example 140, (S)-5-Chloro-6-methoxy-2-(2-methylpiperazin-1-yl)-7-(pyridin-2-yl)benzoxazole]	35%
COc1c(Cl)cc2nc(N3CCNC[C@@H]3C)oc2c1-c1nccs1 [Example 141, (S)-5-Chloro-6-methoxy-2-(2-methylpiperazin-1-yl)-7-(thiazol-2-yl)benzoxazole]	77%
C[C@H]1CNCCN1c1nc2cc(Cl)c(C#N)c(-c3nccs3)c2o1 [Example 142, (S)-5-Chloro-6-cyano-2-(2-methylpiperazin-1-yl)-7-(thiazol-2-yl)benzoxazole]	86%
C[C@H]1CNCCN1c1nc2c(C#N)c(Cl)cc(-c3nccs3)c2o1 [Example 143, (S)-5-Chloro-4-cyano-2-(2-methylpiperazin-1-yl)-7-(thiazol-2-yl)benzoxazole]	94%
C[C@H]1CNCCN1c1nc2cc(F)c(C(F)(F)F)c(-c3nccs3)c2o1 [Example 144, (S)-5-Fluoro-2-(2-methylpiperazin-1-yl)-7-(thiazol-2-yl)-6-(trifluoromethyl)benzoxazole]	41%
C[C@H]1CNCCN1c1nc2cc(Cl)cc(S(C)(=O)=O)c2o1 [Example 145, (S)-5-Chloro-2-(2-methylpiperazin-1-yl)-7-(methylsulfonyl)benzoxazole]	80%
C[C@H]1CNCCN1c1nc2c(I)c(Cl)cc(-c3ccccn3)c2o1 [Example 146, (S)-5-Chloro-4-iodo-2-(2-methylpiperazin-1-yl)-7-(pyridin-2-yl)benzoxazole]	95%
C[C@H]1CNCCN1c1nc2cc(Cl)c(I)c(-c3ccccn3)c2o1 [Example 147, (S)-5-Chloro-6-iodo-2-(2-methylpiperazin-1-yl)-7-(pyridin-2-yl)benz oxazole]	53%
C[C@H]1CNCCN1c1nc2c(-c3ccccc3)c(Cl)cc(-c3ccccn3)c2o1 [Example 148, (S)-5-Chloro-2-(2-methylpiperazin-1-yl)-4-phenyl-7-(pyridin-2-yl)benzoxazole]	94%
C[C@H]1CNCCN1c1nc2c(C3CC3)c(Cl)cc(-c3ccccn3)c2o1 [Example 149, (S)-5-Chloro-4-cyclopropyl-2-(2-methylpiperazin-1-yl)-7-(pyridin-2-yl)benzoxazole]	91%
CSc1c(Cl)cc(-c2ccccn2)c2oc(N3CCNC[C@@H]3C)nc12 [Example 150, (S)-5-Chloro-2-(2-methylpiperazin-1-yl)-4-(methylthio)-7-(pyridin-2-yl)benzoxazole]	91%
C[C@H]1CNCCN1c1nc2c(S(C)(=O)=O)c(Cl)cc(-c3ccccn3)c2o1 [Example 151, (S)-5-Chloro-2-(2-methylpiperazin-1-yl)-4-(methylsulfonyl)-7-(pyridin-2-yl)benzoxazole]	76%
C[C@H]1CNCCN1c1nc2cc(Cl)c(Br)c(-c3ccccn3)c2o1 [Example 152, (S)-6-Bromo-5-chloro-2-(2-methylpiperazin-1-yl)-7-(pyridin-2-yl)benzoxazole]	68%
COc1c(Cl)cc(-c2ccccn2)c2oc(N3CCNC[C@@H]3C)nc12 [Example 153, (S)-5-Chloro-4-methoxy-2-(2-methylpiperazin-1-yl)-7-(pyridin-2-yl)benzoxazole]	93%
Cc1cc(Cl)cc2nc(N3CCNC[C@@H]3C)oc12 [Example 154, (S)-5-Chloro-7-methyl-2-(2-methylpiperazin-1-yl)benzoxazole]	39%
COc1c(Cl)cc(-c2nccs2)c2oc(N3CCNC[C@@H]3C)nc12 [Example 155, (S)-5-Chloro-4-methoxy-2-(2-methylpiperazin-1-yl)-7-(thiazol-2-yl)benzoxazole]	96%
COc1c(Cl)cc(-n2cccn2)c2oc(N3CCNC[C@@H]3C)nc12 [Example 156, (S)-5-Chloro-4-methoxy-2-(2-methylpiperazin-1-yl)-7-(1H-pyrazol-1-yl)benzoxazole]	91%
C[C@@H]1CNCCN1c1nc2c(OC(F)(F)F)c(Cl)cc(-c3ccccn3)c2o1 [Example 157, (R)-5-Chloro-2-(2-methylpiperazin-1-yl)-7-(pyridin-2-yl)-4-(trifluoromethoxy)benzoxazole]	41%
C[C@@H]1CNCCN1c1nc2c(OC(F)(F)F)c(Cl)cc(-c3nccs3)c2o1 [Example 158, (R)-5-Chloro-2-(2-methylpiperazin-1-yl)-7-(thiazol-2-yl)-4-(trifluoromethoxy)benzoxazole]	88%
C[C@@H]1CNCCN1c1nc2c(OC(F)(F)F)c(Cl)cc(-n3cccn3)c2o1 [Example 159, (R)-5-Chloro-2-(2-methylpiperazin-1-yl)-7-(1H-pyrazol-1-yl)-4-(trifluoromethoxy)benzoxazole]	57%

SMILES	PDE4 inhibitory activity (1 μM (%))
C[C@H]1CNCCN1c1nc2cc(Cl)c(OC(F)(F)F)c(-c3nccs3)c2o1 [Example 160, (S)-5-Chloro-2-(2-methylpiperazin-1-yl)-7-(thiazol-2-yl)-6-(trifluoromethoxy)benzoxazole]	86%
COc1c(Cl)cc2nc(N3CCNC[C@@H]3C)oc2c1C [Example 161, (S)-5-Chloro-6-methoxy-7-methyl-2-(2-methylpiperazin-1-yl)benzoxazole]	19%
Cc1c(O)c(Cl)cc2nc(N3CCNC[C@@H]3C)oc12 [Example 162, (S)-5-Chloro-6-hydroxy-7-methyl-2-(2-methylpiperazin-1-yl)benzoxazole]	35%
C[C@H]1CNCCN1c1nc2c(Br)cc(Cl)cc2o1 [Example 163, (S)-4-Bromo-6-chloro-2-(2-methylpiperazin-1-yl)benzoxazole]	52%
C[C@H]1CNCCN1c1nc2c(-c3ccco3)cc(Cl)cc2o1 [Example 164, (S)-6-Chloro-4-(furan-2-yl)-2-(2-methylpiperazin-1-yl)benzoxazole]	75%
C[C@@H]1CNCCN1c1nc2c(-c3ccco3)cc(Cl)cc2o1 [Example 165, (R)-6-Chloro-4-(furan-2-yl)-2-(2-methylpiperazin-1-yl)benzoxazole]	31%
C[C@H]1CNCCN1c1nc2c(-n3cccn3)cc(Cl)cc2o1 [Example 166, (S)-6-Chloro-2-(2-methylpiperazin-1-yl)-4-(1H-pyrazol-1-yl)benzoxazole]	71%
C[C@H]1CNCCN1c1nc2cc(Br)ccc2o1 [Example 167, (S)-5-Bromo-2-(2-methylpiperazin-1-yl)benzoxazole]	16%
COc1cc(C#N)cc2nc(N3CCNC[C@@H]3C)oc12 [Example 168, (S)-5-Cyano-7-methoxy-2-(2-methylpiperazin-1-yl)benzoxazole]	13%
COc1c(Cl)cc2nc(N3CCNC[C@@H]3C)oc2c1OC [Example 169, (S)-5-Chloro-6,7-dimethoxy-2-(2-methylpiperazin-1-yl)benzoxazole]	22%
Cc1cc2oc(N3CCNC[C@@H]3C)nc2cc1Cl [Example 170, (S)-5-Chloro-6-methyl-2-(2-methylpiperazin-1-yl)benzoxazole]	15%
COc1cc2oc(N3CCNC[C@@H]3C)nc2cc1Cl [Example 171, (S)-5-Chloro-6-methoxy-2-(2-methylpiperazin-1-yl)benzoxazole]	14%
Cc1cc(N2CCCC2)cc2nc(N3CCNC[C@@H]3C)oc12 [Example 172, (S)-7-Methyl-5-(pyrrolidin-1-yl)-2-(2-methylpiperazin-1-yl)benzoxazole]	<10%
Cc1cc(-c2ccsc2)cc2nc(N3CCNC[C@@H]3C)oc12 [Example 173, (S)-7-Methyl-5-(thiophen-3-yl)-2-(2-methylpiperazin-1-yl)benzoxazole]	35%
CCc1cc(Cl)cc2nc(N3CCNC[C@H]3C)oc12 [Example 174, (R)-5-Chloro-7-ethyl-2-(2-methylpiperazin-1-yl)benzoxazole]	21%
FC(F)(F)Oc1c(Cl)cc(-c2nccs2)c2oc(N3CCNCC3)nc12 [Example 175, 5-Chloro-2-(piperazin-1-yl)-7-(thiazol-2-yl)-4-(trifluoromethoxy)benzoxazole]	96%
C[C@@H]1CN(c2nc3c(OC(F)(F)F)c(Cl)cc(-c4nccs4)c3o2)CCN1 [Example 176, (R)-5-Chloro-2-(3-methylpiperazin-1-yl)-7-(thiazol-2-yl)-4-(trifluoromethoxy)benzoxazole]	91%
C[C@H]1CN(c2nc3c(OC(F)(F)F)c(Cl)cc(-c4nccs4)c3o2)CCN1 [Example 177, (S)-5-Chloro-2-(3-methylpiperazin-1-yl)-7-(thiazol-2-yl)-4-(trifluoromethoxy)benzoxazole]	93%
C[C@@H]1CNCCN1c1nc2c(C(F)(F)F)c(Cl)cc(-c3ccccn3)c2o1 [Example 178, (R)-5-Chloro-2-(2-methylpiperazin-1-yl)-7-(pyridin-2-yl)-4-(trifluoromethyl)benzoxazole]	33%
C[C@@H]1CNCCN1c1nc2c(C(F)(F)F)c(Cl)cc(-c3nccs3)c2o1 [Example 179, (R)-5-Chloro-2-(2-methylpiperazin-1-yl)-7-(thiazol-2-yl)-4-(trifluoromethyl)benzoxazole]	79%

Source: patent US9890142B2, “PDE4 inhibitor” (Meiji Seika Pharma Co., Ltd., priority 2013, dated 2018)
